Data reported in patent US20240190890A1, “MK2 INHIBITORS AND USES THEREOF” (Bristol-Myers Squibb Company, priority 2022, published 2024).
pIC50: −log10 of the molar value.

Target: p38a activated, mitogen-activated protein kinase-activated protein kinase 2 (MAPKAP-K2 or MK2) enzyme (Homo sapiens (Human), UniProt P49137)
Experiment: MK2 Omnia continuous-read kinase assay for compound potency
Format: biochemical
Conditions: [MK-2]=0.4 nM, [ATP]=10 μM, [ST3-Sox]=10 μM; room temperature
Summary of the method: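 Continuous Sox-peptide fluorescence read (ex360/em485) every 71 s over 2 h at room temperature. Reactions: 10 μM each of ATP (at apparent Km) and S/T3-Sox, 0.4 nM p38a-activated MK2, pH 7.5 Tris/MgCl2 buffer. Initial rates yield % inhibition and IC50; single-exponential kobs values yield apparent kinact/KI.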

p38a activated, mitogen-activated protein kinase-activated protein kinase 2 (MAPKAP-K2 or MK2) enzyme, sequence (P49137 whole entry): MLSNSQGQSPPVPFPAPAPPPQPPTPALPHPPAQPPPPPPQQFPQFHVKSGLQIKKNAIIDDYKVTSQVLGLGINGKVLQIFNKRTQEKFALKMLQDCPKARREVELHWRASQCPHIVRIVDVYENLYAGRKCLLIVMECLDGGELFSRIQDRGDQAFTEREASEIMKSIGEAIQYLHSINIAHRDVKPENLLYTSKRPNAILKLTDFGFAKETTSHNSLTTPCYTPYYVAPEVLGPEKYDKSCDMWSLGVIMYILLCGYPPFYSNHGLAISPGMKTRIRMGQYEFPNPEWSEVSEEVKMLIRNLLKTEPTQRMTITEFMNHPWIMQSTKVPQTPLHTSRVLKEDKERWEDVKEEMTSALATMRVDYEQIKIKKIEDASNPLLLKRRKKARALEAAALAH

Row | pIC50 | SMILES
1 | 6.40 | C#Cc1cc(-c2ccc3c(ccc4sc5c(c43)NC[C@@H](C)NC5=O)n2)cc(CN2CCC(OC(F)(F)F)CC2)n1 [Example I-190, (R)-3-(2-ethynyl-6-((4-(trifluoromethoxy)piperidin-1-yl)methyl)pyridin-4-yl)-10-methyl-9,10,11,12-tetrahydro-8H-[1,4]diazepino[5′,6′:4,5]thieno[3,2-f]quinolin-8-one]
2 | 6.20 | C[C@@H]1CNc2c(sc3ccc4nc(-c5ccnc(/C=C/C(F)(F)F)c5)ccc4c23)C(=O)N1 [Example I-199, (R,E)-10-methyl-3-(2-(3,3,3-trifluoroprop-1-en-1-yl)pyridin-4-yl)-9,10,11,12-tetrahydro-8H-[1,4]diazepino[5′,6′:4,5]thieno[3,2-f]quinolin-8-one]
3 | 6.95 | C=Cc1cc(-c2ccc3c(ccc4sc5c(c43)NC[C@@H](C)NC5=O)n2)cc(CN2CCC3(CC2)CC3(F)F)n1 [Example I-141, (R)-3-(2-((1,1-difluoro-6-azaspiro[2.5]octan-6-yl)methyl)-6-vinylpyridin-4-yl)-10-methyl-9,10,11,12-tetrahydro-8H-[1,4]diazepino[5′,6′:4,5]thieno[3,2-f]quinolin-8-one]
4 | 8.40 | C[C@@H]1CNc2c(sc3ccc4nc(-c5cc(Cl)nc(CO)n5)ccc4c23)C(=O)N1 [Example I-74, (R)-3-(6-chloro-2-(hydroxymethyl)pyrimidin-4-yl)-10-methyl-9,10,11,12-tetrahydro-8H-[1,4]diazepino[5′,6′:4,5]thieno[3,2-f]quinolin-8-one]
5 | 6.36 | C[C@@H]1CNc2c(sc3ccc4nc(-c5nc(Cl)cc(N6CCN(C)CC6)n5)ccc4c23)C(=O)N1 [Example I-43, (R)-3-(4-chloro-6-(4-methylpiperazin-1-yl)pyrimidin-2-yl)-10-methyl-9,10,11,12-tetrahydro-8H-[1,4]diazepino[5′,6′:4,5]thieno[3,2-f]quinolin-8-one]
6 | 9.00 | C[C@@H]1CNc2c(sc3ccc4nc(-c5nc(Cl)ncc5C(F)(F)F)ccc4c23)C(=O)N1 [Example I-4, (R)-3-(2-chloro-5-(trifluoromethyl)pyrimidin-4-yl)-10-methyl-9,10,11,12-tetrahydro-8H-[1,4]diazepino[5′,6′:4,5]thieno[3,2-f]quinolin-8-one]
7 | 6.75 | C#Cc1nccc(-c2ccc3c(ccc4sc5c(c43)NC[C@@H](C)NC5=O)n2)c1C [Example I-220, (R)-3-(2-ethynyl-3-methylpyridin-4-yl)-10-methyl-9,10,11,12-tetrahydro-8H-[1,4]diazepino[5′,6′:4,5]thieno[3,2-f]quinolin-8-one]
8 | 8.30 | C=Cc1cc(-c2ccc3c(ccc4sc5c(c43)NC[C@@H](C)NC5=O)n2)c(C2CC2)cn1 [Example I-196, (R)-3-(5-cyclopropyl-2-vinylpyridin-4-yl)-10-methyl-9,10,11,12-tetrahydro-8H-[1,4]diazepino[5′,6′:4,5]thieno[3,2-f]quinolin-8-one]
9 | 6.17 | C#Cc1cc(-c2ccc3c(ccc4sc5c(c43)NC[C@@H](C)NC5=O)n2)c(Cl)cn1 [Example I-144, (R)-3-(5-chloro-2-ethynylpyridin-4-yl)-10-methyl-9,10,11,12-tetrahydro-8H-[1,4]diazepino[5′,6′:4,5]thieno[3,2-f]quinolin-8-one]
10 | 8.10 | C=Cc1cc(-c2ccc3c(ccc4sc5c(c43)NC[C@@H](C)NC5=O)n2)cc(C2=CCN(C)CC2)n1 [Example I-101, (R)-10-methyl-3-(1′-methyl-6-vinyl-1′,2′,3′,6′-tetrahydro-[2,4′-bipyridin]-4-yl)-9,10,11,12-tetrahydro-8H-[1,4]diazepino[5′,6′:4,5]thieno[3,2-f]quinolin-8-one]

Row | SMILES | pIC50
11 | C=Cc1ncc(COC2(C)CCC2)c(-c2ccc3c(ccc4sc5c(c43)NC[C@@H](C)NC5=O)n2)n1 [Example I-26, (R)-10-methyl-3-(5-((1-methylcyclobutoxy)methyl)-2-vinylpyrimidin-4-yl)-9,10,11,12-tetrahydro-8H-[1,4]diazepino[5′,6′:4,5]thieno[3,2-f]quinolin-8-one] | 6.16
